Measurements taken from patent US20230085307A1, “PYRIDAZINONE COMPOUND AND HERBICIDE” (NISSAN CHEMICAL CORPORATION, priority 2019, published 2023).

Columns and labels:
[1] = test system: windgrass; assay: Test Example 5: herbicidal effect by foliage application, plastic box (Table 20, symbol L); type: in vivo, windgrass (Apera spica-venti); conditions: for L: windgrass, herbicidal effect grade: foliage application, 320 g/ha, three weeks after application
Outline: (§1)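 Plants were sown into sterilized diluvial soil under about 1.5 cm cover and kept in a greenhouse at 25° C. to 30° C. Fourteen days on, foliage received an even spray of the diluted emulsion. Herbicidal or crop effect was judged three weeks afterwards.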

[2] = test system: false cleavers; assay: Test Example 4: herbicidal effect by soil treatment (Table 19, symbol Q); type: in vivo, false cleavers (Galium spurium); conditions: amount of applied herbicide 320 g/ha
Outline: (§2)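 Pre-emergence style soil spray: seeds under ~1.5 cm sterilized diluvial soil received a uniform coat of emulsion diluted to the predetermined herbicide amount. Greenhouse 25–30° C; readout at week three on previously defined criteria.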

[3] = test system: wild oat; assay: Test Example 4: herbicidal effect by soil treatment (Table 19, symbol I); type: in vivo, wild oat (Avena fatua); conditions: amount of applied herbicide 320 g/ha
Outline: as §2

[4] = test system: lambsquarters; assay: Test Example 4: herbicidal effect by soil treatment (Table 19, symbol O); type: in vivo, lambsquarters (Chenopodium album); conditions: amount of applied herbicide 320 g/ha
Outline: as §2

[5] = test system: barnyard grass; assay: Test Example 5: herbicidal effect by foliage application, plastic box (Table 20, symbol H); type: in vivo, barnyard grass (Echinochloa crus-galli); conditions: for H: barnyard grass, herbicidal effect grade: foliage application, 320 g/ha, three weeks after application
Outline: as §1

[6] = test system: velvetleaf; assay: Test Example 4: herbicidal effect by soil treatment (Table 19, symbol M); type: in vivo, velvetleaf (Abutilon theophrasti); conditions: amount of applied herbicide 320 g/ha
Outline: as §2

[7] = test system: Italian ryegrass; assay: Test Example 5: herbicidal effect by foliage application, plastic box (Table 20, symbol K); type: in vivo, Italian ryegrass (Lolium multiflorum); conditions: for K: Italian ryegrass, herbicidal effect grade: foliage application, 320 g/ha, three weeks after application
Outline: as §1

[8] = test system: late watergrass; assay: Test Example 1: herbicidal activity, application before weed generation under submerged conditions (Table 16, symbol A); type: in vivo, late watergrass (Echinochloa oryzicola); conditions: amount of applied herbicide 320 g/ha
Outline: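 Emulsion formulation, water-diluted to set dose, was put onto the flooded surface (4 cm depth, alluvial soil) the same day weeds were sown and 2.5-leaf rice transplanted. After 3 weeks at 25-30 °C under glass, each species was rated 0 (≤5% kill) to 5 (≥90% kill).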

[9] = test system: oval-leafed pondweed; assay: Test Example 2: herbicidal activity, application during weed generation under submerged conditions (Table 17, symbol C); type: in vivo, oval-leafed pondweed (Monochoria vaginalis); conditions: AAH 320 g/ha; application during weed generation, submerged conditions
Outline: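 Wagner pot, alluvial soil, 4 cm flood; mixed sowing of all species; greenhouse 25° C.–30° C. Emulsifiable formulation, water-diluted to predetermined dose, applied to paddy water at 1–2 leaf stage. Effect rated at 3 wk using the earlier test's scoring criteria.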

[10] = test system: persian speedwell; assay: Test Example 4: herbicidal effect by soil treatment (Table 19, symbol R); type: in vivo, Persian speedwell (Veronica persica); conditions: amount of applied herbicide 320 g/ha
Outline: as §2

[11] = test system: rice flat sedge; assay: Test Example 3: herbicidal effect by foliage application, Wagner pot (Table 18, symbol E); type: in vivo, rice flat sedge (Cyperus iria); conditions: for herbicidal effect on E: rice flat sedge: amount of applied herbicide 320 g/ha
Outline: (§3)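 Plants were sown in alluvial soil held under 0.1–0.5 cm standing water and grown 14 days in a greenhouse at 25–30 °C. An emulsifiable formulation, water-diluted to the set dose, was then sprayed onto the foliage, and effects were scored three weeks later using previously defined criteria.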

[12] = test system: velvetleaf; assay: Test Example 5: herbicidal effect by foliage application, plastic box (Table 20, symbol M); type: in vivo, velvetleaf (Abutilon theophrasti); conditions: for M: velvetleaf, herbicidal effect grade: foliage application, 320 g/ha, three weeks after application
Outline: as §1

[13] = test system: chickweed; assay: Test Example 5: herbicidal effect by foliage application, plastic box (Table 20, symbol P); type: in vivo, common chickweed (Stellaria media); conditions: for P: chickweed, herbicidal effect grade: foliage application, 320 g/ha, three weeks after application
Outline: as §1

[14] = test system: green foxtail; assay: Test Example 4: herbicidal effect by soil treatment (Table 19, symbol G); type: in vivo, green foxtail (Setaria viridis); conditions: amount of applied herbicide 320 g/ha
Outline: as §2

[15] = test system: Italian ryegrass; assay: Test Example 4: herbicidal effect by soil treatment (Table 19, symbol K); type: in vivo, Italian ryegrass (Lolium multiflorum); conditions: amount of applied herbicide 320 g/ha
Outline: as §2

[16] = test system: windgrass; assay: Test Example 4: herbicidal effect by soil treatment (Table 19, symbol L); type: in vivo, windgrass (Apera spica-venti); conditions: amount of applied herbicide 320 g/ha
Outline: as §2

[17] = test system: Chinese sprangletop; assay: Test Example 3: herbicidal effect by foliage application, Wagner pot (Table 18, symbol D); type: in vivo, chinese sprangletop (Leptochloa chinensis); conditions: for herbicidal effect on D: Chinese sprangletop: amount of applied herbicide 320 g/ha
Outline: as §3

[18] = amount of applied herbicide 320 g/ha, foliage application after 14-day growth, evaluated three weeks after application

SMILES | L: windgrass, herbicidal effect grade [1] | herbicidal effect, Q: false cleavers [2] | herbicidal effect, I: wild oat [3] | herbicidal effect, O: lambsquarters [4] | H: barnyard grass, herbicidal effect grade [5] | herbicidal effect, M: velvetleaf [6] | K: Italian ryegrass, herbicidal effect grade [7] | Herbicidal effect, A: late watergrass [8] | herbicidal effect rating, C: oval-leafed pondweed [9] | herbicidal effect, R: persian speedwell [10] | herbicidal effect on E: rice flat sedge [11] | M: velvetleaf, herbicidal effect grade [12] | P: chickweed, herbicidal effect grade [13] | herbicidal effect, G: green foxtail [14] | herbicidal effect, K: Italian ryegrass [15] | herbicidal effect, L: windgrass [16] | herbicidal effect on D: Chinese sprangletop [17] | also measured
Cc1nn(C)c(=O)c(-c2c(-c3ccc4c(c3)OCCO4)sc3cc(F)ccc23)c1O [3-013] | 0 (Herbicidal rate of 5% or less (almost no effect)) | 4 (Herbicidal rate of 70% or more and less than 90%) | 0 (Herbicidal rate of 5% or less (almost no effect)) | 5 (Herbicidal rate of 90% or more (almost completely withered)) | 3 (Herbicidal rate of 40% or more and less than 70%) | 3 (Herbicidal rate of 40% or more and less than 70%) | 1 (Herbicidal rate of 5% or more and less than 20%) | 3 (Herbicidal rate of 40% or more and less than 70%) | 3 (Herbicidal rate of 40% or more and less than 70%) | 5 (Herbicidal rate of 90% or more (almost completely withered)) | 5 (Herbicidal rate of 90% or more (almost completely withered)) | 4 (Herbicidal rate of 70% or more and less than 90%) | 5 (Herbicidal rate of 90% or more (almost completely withered)) | 4 (Herbicidal rate of 70% or more and less than 90%) | 0 (Herbicidal rate of 5% or less (almost no effect)) | 0 (Herbicidal rate of 5% or less (almost no effect)) | 4 (Herbicidal rate of 70% or more and less than 90%) | –
CCCC(=O)Oc1c(C)nn(C)c(=O)c1-c1c(-c2ccc(F)cc2OCC)sc2cc(F)ccc12 [3-012] | 5 (Herbicidal rate of 90% or more (almost completely withered)) | 5 (Herbicidal rate of 90% or more (almost completely withered)) | 3 (Herbicidal rate of 40% or more and less than 70%) | 3 (Herbicidal rate of 40% or more and less than 70%) | 5 (Herbicidal rate of 90% or more (almost completely withered)) | 0 (Herbicidal rate of 5% or less (almost no effect)) | 4 (Herbicidal rate of 70% or more and less than 90%) | 5 (Herbicidal rate of 90% or more (almost completely withered)) | 4 (Herbicidal rate of 70% or more and less than 90%) | 5 (Herbicidal rate of 90% or more (almost completely withered)) | 5 (Herbicidal rate of 90% or more (almost completely withered)) | 5 (Herbicidal rate of 90% or more (almost completely withered)) | 5 (Herbicidal rate of 90% or more (almost completely withered)) | 3 (Herbicidal rate of 40% or more and less than 70%) | 3 (Herbicidal rate of 40% or more and less than 70%) | 5 (Herbicidal rate of 90% or more (almost completely withered)) | 2 (Herbicidal rate of 20% or more and less than 40%) | –
Cc1nn(C)c(=O)c(-c2c(-c3ccc(Cl)cc3)sc3c(C)cccc23)c1O [4-102] | – | – | – | – | – | – | – | 4 (Herbicidal rate of 70% or more and less than 90%) | 0 (Herbicidal rate of 5% or less (almost no effect)) | – | – | – | – | – | – | – | – | Herbicidal effect by foliage application, L: windgrass [1, 18]: 0 (Herbicidal rate of 5% or less (almost no effect)); Herbicidal effect by soil treatment, Q: false cleavers [2]: 0 (Herbicidal rate of 5% or less (almost no effect)); Herbicidal effect by soil treatment, I: wild oat [3]: 0 (Herbicidal rate of 5% or less (almost no effect)); Herbicidal effect by soil treatment, O: lambsquarters [4]: 3 (Herbicidal rate of 40% or more and less than 70%); Herbicidal effect by foliage application, H: barnyard grass [5, 18]: 0 (Herbicidal rate of 5% or less (almost no effect)); Herbicidal effect by soil treatment, M: velvetleaf [6]: 2 (Herbicidal rate of 20% or more and less than 40%); Herbicidal effect by foliage application, K: Italian ryegrass [7, 18]: 4 (Herbicidal rate of 70% or more and less than 90%); Herbicidal effect by soil treatment, R: persian speedwell [10]: 0 (Herbicidal rate of 5% or less (almost no effect)); herbicidal effect on rice flat sedge (E) ([11]; 320 g/ha): 5 (Herbicidal rate of 90% or more (almost completely withered)); Herbicidal effect by foliage application, M: velvetleaf [12, 18]: 5 (Herbicidal rate of 90% or more (almost completely withered)); Herbicidal effect by foliage application, P: chickweed [13, 18]: 5 (Herbicidal rate of 90% or more (almost completely withered)); Herbicidal effect by soil treatment, G: green foxtail [14]: 0 (Herbicidal rate of 5% or less (almost no effect)); Herbicidal effect by soil treatment, K: Italian ryegrass [15]: 3 (Herbicidal rate of 40% or more and less than 70%); Herbicidal effect by soil treatment, L: windgrass [16]: 0 (Herbicidal rate of 5% or less (almost no effect)); herbicidal effect on Chinese sprangletop (D) ([17]; 320 g/ha): 3 (Herbicidal rate of 40% or more and less than 70%)
CCCC(=O)Oc1c(C)nn(C)c(=O)c1-c1c(-c2ccc(F)cc2OC)sc2cc(F)ccc12 [3-010] | 5 (Herbicidal rate of 90% or more (almost completely withered)) | 5 (Herbicidal rate of 90% or more (almost completely withered)) | 4 (Herbicidal rate of 70% or more and less than 90%) | 5 (Herbicidal rate of 90% or more (almost completely withered)) | 5 (Herbicidal rate of 90% or more (almost completely withered)) | 0 (Herbicidal rate of 5% or less (almost no effect)) | 4 (Herbicidal rate of 70% or more and less than 90%) | 5 (Herbicidal rate of 90% or more (almost completely withered)) | 4 (Herbicidal rate of 70% or more and less than 90%) | 5 (Herbicidal rate of 90% or more (almost completely withered)) | 4 (Herbicidal rate of 70% or more and less than 90%) | 5 (Herbicidal rate of 90% or more (almost completely withered)) | 5 (Herbicidal rate of 90% or more (almost completely withered)) | 3 (Herbicidal rate of 40% or more and less than 70%) | 4 (Herbicidal rate of 70% or more and less than 90%) | 4 (Herbicidal rate of 70% or more and less than 90%) | 0 (Herbicidal rate of 5% or less (almost no effect)) | –
